30 substances from US8969516B2, “Method of hydrolysis of peptide bond” (priority 2006, dated 2015) can be followed below.

The nature of this data set: MALDI-TOF screening of Ni^2+ dependent hydrolysis in a combinatorial peptide library. Type of data set: physicochemical. To be noted: Ni^2+ 2 mM, pH 8.2, 10 mM Tris, score=24/tm. Put shortly: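 The screen used 1 mM peptide mixtures in 10 mM Tris, pH 8.2, with 2 mM Ni2+ at two temperatures, 37 °C and 45 °C. Product appearance and substrate decline were monitored visually by MALDI-TOF over 8 h. Scores for X and Z were then summed by row and column to rank substitutions.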

[1] abbreviates: CH3CO-Gly-Ala-Thr-X-His-Z-Lys-Phe-Leu-NH2 library, 37° C.
Setting [2] is: CH3CO-Gly-Ala-Thr-X-His-Z-Lys-Phe-Leu-NH2 library, 45° C.
Setting [3] is: CH3CO-Gly-Ala-Ser-X-His-Z-Lys-Phe-Leu-NH2 library, 37° C.
Where [4] appears, read: CH3CO-Gly-Ala-Ser-X-His-Z-Lys-Phe-Leu-NH2 library, 45° C.

In the case of Ac-GATHHGKFL-NH2 [THHG], the “hydrolysis score from MALDI-TOF screening” value (from here on “hydrolysis score”) under setting [1] is on record as 0 (a score of 0 if no trace of the product of hydrolysis was seen after 8 hours of incubation) and the “hydrolysis score” value under setting [2] was 4 (a score of 4 for detection at 6 hours).
In the case of Ac-GASFHLKFL-NH2 [SFHL], the “hydrolysis score” value is on record as 4 (a score of 4 for detection at 6 hours) under setting [3] and 6 (a score of 6 for detection at 4 hours) under setting [4].
Take Ac-GATTHWKFL-NH2 [TTHW]: the “hydrolysis score” value under setting [1] is 0 (a score of 0 if no trace of the product of hydrolysis was seen after 8 hours of incubation) and the “hydrolysis score” value under setting [2] is reported as 0 (a score of 0 if no trace of the product of hydrolysis was seen after 8 hours of incubation).
For the substance Ac-GATWHLKFL-NH2 [TWHL], the “hydrolysis score” value is recorded as 0 (a score of 0 if no trace of the product of hydrolysis was seen after 8 hours of incubation) under setting [1] and 3 (a score of 3 for detection at 8 hours) under setting [2].
For the substance Ac-GASLHTKFL-NH2 [SLHT], the “hydrolysis score” value is given as 0 (a score of 0 if no trace of the product of hydrolysis was seen after 8 hours of incubation) under setting [3] and 0 (a score of 0 if no trace of the product of hydrolysis was seen after 8 hours of incubation) under setting [4].
As for Ac-GASKHMKFL-NH2 [SKHM], the “hydrolysis score” value is 3 (a score of 3 for detection at 8 hours) under setting [3] and 4 (a score of 4 for detection at 6 hours) under setting [4].
The corresponding values for Ac-GASFHEKFL-NH2 [SFHE] are 0 (a score of 0 if no trace of the product of hydrolysis was seen after 8 hours of incubation) and 3 (a score of 3 for detection at 8 hours).
In the case of Ac-GATNHPKFL-NH2 [TNHP], the “hydrolysis score” value is given as 0 (a score of 0 if no trace of the product of hydrolysis was seen after 8 hours of incubation) under setting [1] and 0 (a score of 0 if no trace of the product of hydrolysis was seen after 8 hours of incubation) under setting [2].
For Ac-GASVHNKFL-NH2 [SVHN], the “hydrolysis score” value is recorded as 0 (a score of 0 if no trace of the product of hydrolysis was seen after 8 hours of incubation) under setting [3] and 0 (a score of 0 if no trace of the product of hydrolysis was seen after 8 hours of incubation) under setting [4].
On to Ac-GASVHKKFL-NH2 [SVHK], for which the “hydrolysis score” value by setting is: under setting [3], 3 (a score of 3 for detection at 8 hours); under setting [4], 4 (a score of 4 for detection at 6 hours).
The corresponding values for Ac-GASSHRKFL-NH2 [SSHR] are 6 (a score of 6 for detection at 4 hours) and 6 (a score of 6 for detection at 4 hours).
As for Ac-GASWHEKFL-NH2 [SWHE], the “hydrolysis score” value under setting [3] is recorded as 0 (a score of 0 if no trace of the product of hydrolysis was seen after 8 hours of incubation) and the “hydrolysis score” value under setting [4] is 0 (a score of 0 if no trace of the product of hydrolysis was seen after 8 hours of incubation).
Regarding Ac-GATLHYKFL-NH2 [TLHY], the “hydrolysis score” value is, setting by setting: under setting [1], 0 (a score of 0 if no trace of the product of hydrolysis was seen after 8 hours of incubation); under setting [2], 0 (a score of 0 if no trace of the product of hydrolysis was seen after 8 hours of incubation).
Consider Ac-GASKHIKFL-NH2 [SKHI], for which the “hydrolysis score” value under setting [3] is on record as 6 (a score of 6 for detection at 4 hours) and the “hydrolysis score” value under setting [4] is recorded as 12 (a score of 12, if it was seen to be partially hydrolysed at 2 hours).
For Ac-GASVHDKFL-NH2 [SVHD] the same measures were 0 (a score of 0 if no trace of the product of hydrolysis was seen after 8 hours of incubation) and 0 (a score of 0 if no trace of the product of hydrolysis was seen after 8 hours of incubation).
Turning to Ac-GASIHKKFL-NH2 [SIHK], the “hydrolysis score” value was 3 (a score of 3 for detection at 8 hours) under setting [3] and 4 (a score of 4 for detection at 6 hours) under setting [4].
With Ac-GATKHMKFL-NH2 [TKHM], the “hydrolysis score” value under setting [1] is reported as 3 (a score of 3 for detection at 8 hours) and the “hydrolysis score” value under setting [2] was 4 (a score of 4 for detection at 6 hours).
Regarding Ac-GASRHAKFL-NH2 [SRHA], the “hydrolysis score” value under setting [3] is recorded as 3 (a score of 3 for detection at 8 hours) and the “hydrolysis score” value under setting [4] was 6 (a score of 6 for detection at 4 hours).
As for Ac-GASPHAKFL-NH2 [SPHA], the “hydrolysis score” value under setting [3] is listed as 0 (a score of 0 if no trace of the product of hydrolysis was seen after 8 hours of incubation) and the “hydrolysis score” value under setting [4] is listed as 0 (a score of 0 if no trace of the product of hydrolysis was seen after 8 hours of incubation).
As for Ac-GATLHRKFL-NH2 [TLHR], the “hydrolysis score” value under setting [1] was 0 (a score of 0 if no trace of the product of hydrolysis was seen after 8 hours of incubation) and the “hydrolysis score” value under setting [2] is 3 (a score of 3 for detection at 8 hours).
Consider Ac-GASQHIKFL-NH2 [SQHI], for which the “hydrolysis score” value under setting [3] is given as 6 (a score of 6 for detection at 4 hours) and the “hydrolysis score” value under setting [4] is 6 (a score of 6 for detection at 4 hours).
As to Ac-GASTHTKFL-NH2 [STHT], the “hydrolysis score” value is reported as 0 (a score of 0 if no trace of the product of hydrolysis was seen after 8 hours of incubation) under setting [3] and 0 (a score of 0 if no trace of the product of hydrolysis was seen after 8 hours of incubation) under setting [4].
As to Ac-GASWHRKFL-NH2 [SWHR], the “hydrolysis score” value under setting [3] was 3 (a score of 3 for detection at 8 hours) and the “hydrolysis score” value under setting [4] is listed as 6 (a score of 6 for detection at 4 hours).
Turning to Ac-GATPHGKFL-NH2 [TPHG], the “hydrolysis score” value under setting [2] is 0 (a score of 0 if no trace of the product of hydrolysis was seen after 8 hours of incubation).
Regarding Ac-GATMHIKFL-NH2 [TMHI], the “hydrolysis score” value under setting [1] is recorded as 0 (a score of 0 if no trace of the product of hydrolysis was seen after 8 hours of incubation) and the “hydrolysis score” value under setting [2] is recorded as 0 (a score of 0 if no trace of the product of hydrolysis was seen after 8 hours of incubation).
With Ac-GASRHGKFL-NH2 [SRHG], the “hydrolysis score” value is recorded as 3 (a score of 3 for detection at 8 hours) under setting [3] and 6 (a score of 6 for detection at 4 hours) under setting [4].
Consider Ac-GASRHPKFL-NH2 [SRHP], for which the “hydrolysis score” value is 0 (a score of 0 if no trace of the product of hydrolysis was seen after 8 hours of incubation) under setting [3] and 0 (a score of 0 if no trace of the product of hydrolysis was seen after 8 hours of incubation) under setting [4].
Turning to Ac-GASLHLKFL-NH2 [SLHL], the “hydrolysis score” value runs as follows: under setting [3], 3 (a score of 3 for detection at 8 hours); under setting [4], 0 (a score of 0 if no trace of the product of hydrolysis was seen after 8 hours of incubation).
For the substance Ac-GASYHHKFL-NH2 [SYHH], the “hydrolysis score” value reads like this: under setting [3], 4 (a score of 4 for detection at 6 hours); under setting [4], 4 (a score of 4 for detection at 6 hours).
In the case of Ac-GASSHIKFL-NH2 [SSHI], the “hydrolysis score” value reads like this: under setting [3], 6 (a score of 6 for detection at 4 hours); under setting [4], 6 (a score of 6 for detection at 4 hours).
